In PMC3354962 (Advances in bioscience and biotechnology (Print), 2011):

Experiments:
Trypsin = experiment: Protease digestion, SDS-PAGE: trypsin; format: in vitro ADME; conditions: 1 µU trypsin, 1 hr, 37°C, Coomassie, Figure 1
proteases = experiment: Protease digestion, summary over the panel of proteases; format: in vitro ADME; conditions: of the 9 proteases tested; 1 µU enzyme, 1 hr, 37°C, SDS-PAGE

Row | Substance | Appearance of peptide bands on SDS-PAGE after digestion by trypsin (Trypsin) | Number of proteases the material was resistant to (proteases)
1 | PSC-RANTES | reduced intensity or density rather than disappearing | –
2 | Griffithsin [GRFT] | – | 8
